{"source": "patent US20030068615A1", "about": "“Polypeptides that bind HIV gp120 and related nucleic acids, antibodies, compositions, and methods of use” (priority 1999, published 2003)", "target": "HIV-1LAI envelope gp120 (Human immunodeficiency virus type 1 group M subtype B, UniProt P03377)", "assay_type": "binding", "settings": "for Counts per 20′ Average-background: CCR5 18-mer scan; for Binding Results For Window Length (counts bound-background), 9 / Binding Results For Window Length (counts bound-background), 12 / Binding Results For Window Length (counts bound-background), 15 / Binding Results For Window Length (counts bound-background), 18: STRL33 amino terminus; for Binding Results For Window Length (counts bound-background), 9: 9-mer starting at the first residue of the printed sequence; for Binding Results For Window Length (counts bound-background), 12: 12-mer starting at the first residue of the printed sequence; for Binding Results For Window Length (counts bound-background), 15: 15-mer starting at the first residue of the printed sequence; for Binding Results For Window Length (counts bound-background), 18: 18-mer starting at the first residue of the printed sequence; for Relative % of Control: CCR5 (1-18) alanine variants, mean of two syntheses and binding experiments ± average deviation, wild-type = 100%", "key": {"[1]": {"settings": "radiolabeled HIV-1LAI gp120, background subtracted"}, "[2]": {"settings": "Panel C, 15-mers and 18-mers of CD4, empty control 556"}, "[3]": {"settings": "STRL33 18-mer scan, background subtracted, first of two count columns"}, "[4]": {"settings": "STRL33 18-mer scan, background subtracted, second of two count columns"}, "[5]": {"settings": "Panel A, 21-mers of CD4, empty control 515 and 617"}, "[6]": {"settings": "CXCR4 18-mer scan, background subtracted, empty control 0"}, "[7]": {"settings": "CXCR4 18-mer scan, empty control 412"}, "[8]": {"settings": "Panel E, 9-mers and 12-mers of CD4, empty control 571"}, "[9]": {"settings": "Panel D, 9-mers and 12-mers of CD4, empty control […]"}, "[10]": {"settings": "Panel G, alanine replacements and serial truncations (Z) of CD4 polypeptides, empty control 580"}}, "note": "“And” between values parts separate entries of the source, which are not always exact repeats. Equal entries are not always repeated. Where two headings read alike, the source gives them in different places.", "data": [{"sequence": "SVYTRSTGEQEISVGL [CCR5 segment 337-]", "values": [{"measurement": "Counts per 20′ Average-background", "setting": "[1]", "result": 47, "unit": "counts per 20′"}]}, {"sequence": "LGLVLPLLVMVICYSGIL", "values": [{"measurement": "Counts per 20′ Average-background", "setting": "[1]", "result": 180, "unit": "counts per 20′"}]}, {"sequence": "VEFKIDIVVLAFQKA", "values": [{"measurement": "COUNTS of radiolabeled gp120 retained", "setting": "[2]", "result": 1005, "unit": "counts"}]}, {"sequence": "TIMVTEAIAYLRACLNPV [STRL33 segment 269-286]", "values": [{"measurement": "radioactive counts recorded in twenty minutes", "setting": "[3]", "result": 140.5, "unit": "counts"}, {"measurement": "radioactive counts recorded in twenty minutes", "setting": "[4]", "result": 272.5, "unit": "counts"}]}, {"sequence": "DIVVLAFQKASSIVYKKEGEQ", "values": [{"measurement": "COUNTS of radiolabeled gp120 retained", "setting": "[5]", "result": 788, "unit": "counts"}]}, {"sequence": "SSFNDSSQEEHQAFLQFS [STRL33 segment 13-30]", "values": [{"measurement": "radioactive counts recorded in twenty minutes", "setting": "[3]", "result": 2689.5, "unit": "counts"}, {"measurement": "radioactive counts recorded in twenty minutes", "setting": "[4]", "result": 2757.5, "unit": "counts"}, {"measurement": "Binding Results For Window Length (counts bound-background), 9", "setting": "background subtracted", "result": 243, "unit": "counts"}, {"measurement": "Binding Results For Window Length (counts bound-background), 12", "setting": "background subtracted", "result": 277, "unit": "counts"}, {"measurement": "Binding Results For Window Length (counts bound-background), 15", "setting": "background subtracted", "result": 902, "unit": "counts"}, {"measurement": "Binding Results For Window Length (counts bound-background), 18", "setting": "background subtracted", "result": 6038, "unit": "counts"}]}, {"sequence": "IIISKLSHSKGHQKRKAL", "values": [{"measurement": "radioactive counts recorded in twenty minutes", "setting": "[6]", "result": 157, "unit": "counts"}, {"measurement": "radioactive counts recorded in twenty minutes", "setting": "[7]", "result": 569, "unit": "counts"}]}, {"sequence": "VVFQFQHIMVGLILPGIV", "values": [{"measurement": "radioactive counts recorded in twenty minutes", "setting": "[6]", "result": 589, "unit": "counts"}, {"measurement": "radioactive counts recorded in twenty minutes", "setting": "[7]", "result": 1001, "unit": "counts"}]}, {"sequence": "NPIIYAFVGEKFRNYLLV [CCR5 segment 293-]", "values": [{"measurement": "Counts per 20′ Average-background", "setting": "[1]", "result": 162, "unit": "counts per 20′"}]}, {"sequence": "RNYLLVFFQKHIAKRFCK", "values": [{"measurement": "Counts per 20′ Average-background", "setting": "[1]", "result": 65, "unit": "counts per 20′"}]}, {"sequence": "FPLAFTVEKLTGSGELWW", "values": [{"measurement": "COUNTS of radiolabeled gp120 retained", "setting": "[2]", "result": 586, "unit": "counts"}]}, {"sequence": "AFQKASSIVYKK", "values": [{"measurement": "COUNTS of radiolabeled gp120 retained", "setting": "[8]", "result": 597, "unit": "counts"}]}, {"sequence": "EDSDTYICE", "values": [{"measurement": "COUNTS of radiolabeled gp120 retained", "setting": "[9]", "result": 650, "unit": "counts"}]}, {"sequence": "NSDTHLLQG", "values": [{"measurement": "COUNTS of radiolabeled gp120 retained", "setting": "[9]", "result": 561, "unit": "counts"}]}, {"sequence": "NCKRLKSMTDIYLLNLAI [CCR5 segment 57-74]", "values": [{"measurement": "Counts per 20′ Average-background", "setting": "[1]", "result": 25, "unit": "counts per 20′"}]}, {"sequence": "PFWAYAGIHEWVFGQVMC", "values": [{"measurement": "radioactive counts recorded in twenty minutes", "setting": "[3]", "result": 7262.5, "unit": "counts"}, {"measurement": "radioactive counts recorded in twenty minutes", "setting": "[4]", "result": 7537.5, "unit": "counts"}]}, {"sequence": "IDIVVLAFQKASSIVYKKEGE", "values": [{"measurement": "COUNTS of radiolabeled gp120 retained", "setting": "[5]", "result": 962, "unit": "counts"}]}, {"sequence": "YSSVLILAFISLDRYLAI", "values": [{"measurement": "radioactive counts recorded in twenty minutes", "setting": "[6]", "result": 157, "unit": "counts"}, {"measurement": "radioactive counts recorded in twenty minutes", "setting": "[7]", "result": 569, "unit": "counts"}]}, {"sequence": "LAFQKASSIVYKKEG", "values": [{"measurement": "COUNTS of radiolabeled gp120 retained", "setting": "[2]", "result": 593, "unit": "counts"}]}, {"sequence": "GEQVEFSFPLAFTVE", "values": [{"measurement": "COUNTS of radiolabeled gp120 retained", "setting": "[2]", "result": 4656, "unit": "counts"}, {"measurement": "COUNTS of radiolabeled gp120 retained", "setting": "[10]", "result": "18856 counts and 18867 counts and 20691 counts and 17662 counts and 19190 counts and 18219 counts"}]}, {"sequence": "IVVLAFQKASSI", "values": [{"measurement": "COUNTS of radiolabeled gp120 retained", "setting": "[8]", "result": 548, "unit": "counts"}]}, {"sequence": "GEQVEFSFPLAFTAE", "values": [{"measurement": "COUNTS of radiolabeled gp120 retained", "setting": "[10]", "result": "18797 counts and 16765 counts"}]}, {"sequence": "MLILTCITVDRFIVVVKA", "values": [{"measurement": "radioactive counts recorded in twenty minutes", "setting": "[3]", "result": 298.5, "unit": "counts"}, {"measurement": "radioactive counts recorded in twenty minutes", "setting": "[4]", "result": 228.5, "unit": "counts"}]}, {"sequence": "SFPLAFTVE", "values": [{"measurement": "COUNTS of radiolabeled gp120 retained", "setting": "[8]", "result": 619, "unit": "counts"}]}, {"sequence": "TELLQGASLTLTLES", "values": [{"measurement": "COUNTS of radiolabeled gp120 retained", "setting": "Panel F, sequential alanine replacements of CD4 polypeptides, duplicate series, empty control 569", "result": 4238, "unit": "counts"}]}, {"sequence": "EVQLLVFGLTAN", "values": [{"measurement": "COUNTS of radiolabeled gp120 retained", "setting": "[9]", "result": 1838, "unit": "counts"}]}, {"sequence": "LPYYIGISIDSFILLEII", "values": [{"measurement": "radioactive counts recorded in twenty minutes", "setting": "[6]", "result": 439, "unit": "counts"}, {"measurement": "radioactive counts recorded in twenty minutes", "setting": "[7]", "result": 851, "unit": "counts"}]}, {"sequence": "DQKEEVQLL", "values": [{"measurement": "COUNTS of radiolabeled gp120 retained", "setting": "[9]", "result": 589, "unit": "counts"}]}, {"sequence": "CQLLTGLYFIGFFSGIFF", "values": [{"measurement": "Counts per 20′ Average-background", "setting": "[1]", "result": 489, "unit": "counts per 20′"}]}, {"sequence": "MCKSLLGIYTINFYTSML", "values": [{"measurement": "radioactive counts recorded in twenty minutes", "setting": "[3]", "result": 1505.5, "unit": "counts"}, {"measurement": "radioactive counts recorded in twenty minutes", "setting": "[4]", "result": 1283.5, "unit": "counts"}]}, {"sequence": "VEKLTGSGELWW", "values": [{"measurement": "COUNTS of radiolabeled gp120 retained", "setting": "[8]", "result": 477, "unit": "counts"}]}, {"sequence": "SSIVYKKEGEQVEFSFPLAFT", "values": [{"measurement": "COUNTS of radiolabeled gp120 retained", "setting": "[5]", "result": 28068, "unit": "counts"}]}, {"sequence": "VLAFQKASSIVYKKEGEQ", "values": [{"measurement": "COUNTS of radiolabeled gp120 retained", "setting": "[2]", "result": 549, "unit": "counts"}]}, {"sequence": "LLQGQSLTLTLE", "values": [{"measurement": "COUNTS of radiolabeled gp120 retained", "setting": "[9]", "result": 1320, "unit": "counts"}]}, {"sequence": "IKNLKIEDSDTY", "values": [{"measurement": "COUNTS of radiolabeled gp120 retained", "setting": "[9]", "result": 574, "unit": "counts"}]}, {"sequence": "AEHDYHEDYGFSSFNDSS", "values": [{"measurement": "Binding Results For Window Length (counts bound-background), 9", "setting": "background subtracted", "result": 354, "unit": "counts"}, {"measurement": "Binding Results For Window Length (counts bound-background), 12", "setting": "background subtracted", "result": 697, "unit": "counts"}, {"measurement": "Binding Results For Window Length (counts bound-background), 15", "setting": "background subtracted", "result": 1095, "unit": "counts"}, {"measurement": "Binding Results For Window Length (counts bound-background), 18", "setting": "background subtracted", "result": 1014, "unit": "counts"}]}, {"sequence": "FSFPLAFTVEKL", "values": [{"measurement": "COUNTS of radiolabeled gp120 retained", "setting": "[8]", "result": 573, "unit": "counts"}]}, {"sequence": "MDYQVSSAIYDINYYTSE", "values": [{"measurement": "Relative % of Control", "result": "157 ± 2", "unit": "%"}]}, {"sequence": "MDYQVSSPIYDINYYTSA [CCR5 (1-18) variant E18A]", "values": [{"measurement": "Relative % of Control", "result": "4 ± 2", "unit": "%"}, {"measurement": "percentage of binding of mutant polypeptide compared to wild-type polypeptide, gp120", "setting": "CCR5 alanine mutant peptide, radiolabeled HIV-1LAI gp120", "result": 4.1, "unit": "%"}]}, {"sequence": "MDYQVSSPIYDINYYASE", "values": [{"measurement": "Relative % of Control", "result": "78 ± 34", "unit": "%"}]}, {"sequence": "QKHRSLKIIFLVMAVFLL [STRL33 segment 225-242]", "values": [{"measurement": "radioactive counts recorded in twenty minutes", "setting": "[3]", "result": 810.5, "unit": "counts"}, {"measurement": "radioactive counts recorded in twenty minutes", "setting": "[4]", "result": 814.5, "unit": "counts"}]}, {"sequence": "KLTGSGELWWQAERASSSKSW [human CD4 231-251]", "values": [{"measurement": "number of radioactive decays (counts) counted", "setting": "human CD4 21-mer scan, empty control 2075", "result": 1878, "unit": "counts"}]}, {"sequence": "IKNLKIEDS", "values": [{"measurement": "COUNTS of radiolabeled gp120 retained", "setting": "[9]", "result": 557, "unit": "counts"}]}, {"sequence": "KEGEQVEFSFPLAFTVEKLTG", "values": [{"measurement": "COUNTS of radiolabeled gp120 retained", "setting": "[5]", "result": 972, "unit": "counts"}]}, {"sequence": "FTVEKLTGSGELWWQ", "values": [{"measurement": "COUNTS of radiolabeled gp120 retained", "setting": "[2]", "result": 625, "unit": "counts"}]}, {"sequence": "VLQNQKKVEFKIDIV", "values": [{"measurement": "COUNTS of radiolabeled gp120 retained", "setting": "[2]", "result": 605, "unit": "counts"}]}, {"sequence": "FFIILLTIDRYLAVVHAV [CCR5 segment 117-]", "values": [{"measurement": "Counts per 20′ Average-background", "setting": "[1]", "result": 77, "unit": "counts per 20′"}]}, {"sequence": "IIKNLKIEDSDTYICEVE", "values": [{"measurement": "COUNTS of radiolabeled gp120 retained", "setting": "Panel B, 15-mers and 18-mers of CD4, empty control 575", "result": 751, "unit": "counts"}]}]}
